Test results as given in patent US8815813B2, “Methods for treating immune-mediated Dengue Fever infections and antibody-dependent enhancement of Dengue Fever infections, including Dengue Hemorrhagic Fever and Dengue Shock Syndrome” (priority 2008, dated 2014).
Where two headings read alike, the source gives them in different places. No end group written: not given here.

Columns and labels:
FcγIIIa = format: binding
FcγIIb = format: binding
human C1q = assay: Reverse ELISA: inhibition of PAP immune complex binding to C1q coated plates
FcγIIIb (NA2) = format: binding
recombinant TNF-α = format: binding
FcγIIb/c = format: binding
recombinant human FcγIIa = format: binding
Experimental: The results of 1:250 and 1:500 serial dilutions (ADE was most evident at serum dilutions of 1:250 to 1:500) of the DENV-IgG-IC were tested against inhibition of DENV-IgG-IC binding to huFcγRIIa coated microtiter wells. Results using huFcγRIIa coated wells with either a 1:250 dilution of DENV-IgG-IC with no inhibitor, a 1:250 dilution of DENV-IgG-IC with SEQ ID NO:20, a 1:500 dilution of DENV-IgG-IC with no inhibitor, and a 1:500 dilution of DENV-IgG-IC with SEQ ID NO:20 are shown in Table 5.

[1] = tested on: Dengue Virus recombinant NS1; format: binding; settings: summary of Table 6
Experimental: PAP IC were incubated with either no peptide or with SEQ ID NO:20 for one hour.

FcγIIa (H131 allele) = format: binding
Fcγ1 = format: binding
FcγIIa (R131 allele) = assay: Reverse ELISA: inhibition of PAP-IC binding to FcγIIa (R131 allele) coated plates; settings: PAP pre-incubated with peptide 1 h; positive control 1.599

FcγIIIb (NA2), sequence (O75015 17-200): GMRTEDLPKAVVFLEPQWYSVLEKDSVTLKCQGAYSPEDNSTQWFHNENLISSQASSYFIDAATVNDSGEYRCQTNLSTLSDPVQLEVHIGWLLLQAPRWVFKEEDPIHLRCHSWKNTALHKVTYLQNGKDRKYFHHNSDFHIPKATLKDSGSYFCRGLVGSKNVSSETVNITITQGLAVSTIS

Substance | OD405 FcγIIIa (FcγIIIa) | OD405 FcγIIb (FcγIIb) | inhibition of C1q binding (ranking in words) (human C1q) | further results
APPCAFHLGELVWCT (cysteine pairing not given here) [SEQ ID NO:18] | 0.880 | 0.380 | – | –
APPCARHLGELVWCT (cysteine pairing not given here) [SEQ ID NO:16] | 0.709 | 0.768 | next best result | –
APPCAWHLGELVWCT (cysteine pairing not given here) [SEQ ID NO:14] | 0.530 | 0.562 | – | –
Ala-Pro-Pro-Asp-Cys-Ala-Trp-His-Leu-Gly-Glu-Leu-Val-Trp-Cys-Thr [SEQ ID NO:20] | 0.670 | 0.496 | greatest inhibition of C1q binding | % inhibition of IC binding, FcγIIIb (NA2) (FcγIIIb (NA2)): 91%; FcγIIIb (NA2) (read at 405 nm) (FcγIIIb (NA2)): 0.266; OD405 (recombinant TNF-α): 0.086; inhibition of PAP-IC binding to recombinant TNFα coated plates (in words) (recombinant TNF-α): marked ability to inhibit the binding; FcγIIb/c (read at 405 nm) (FcγIIb/c): 0.266; DENV-IgG-IC binding to huFcγRIIa coated wells (ELISA reading) (recombinant human FcγIIa; 1:250 dilution of DENV2 (16681)-DENV convalescent IgG-IC, no peptide control 2.885): 0.265; DENV-IgG-IC binding to huFcγRIIa coated wells (ELISA reading) (recombinant human FcγIIa; 1:500 dilution of DENV2 (16681)-DENV convalescent IgG-IC, no peptide control 2.362): 0.289; inhibition of DENV2-anti-DENV convalescent IgG-IC binding to FcγIIa coated plates (in words) (recombinant human FcγIIa; summary of Table 5): marked ability to inhibit binding; inhibition of PAP-IC binding to recombinant DENV NS1 coated plates (in words) [1]: marked ability to inhibit the binding; FcγIIa* (H131 allele) (read at 405 nm) (FcγIIa (H131 allele)): 0.209; % inhibition of IC binding, Fcγ1 (Fcγ1): 89%; Fcγ1 (read at 405 nm) (Fcγ1): 0.264
Asp-Cys-Ala-Phe-His-Leu-Gly-Glu-Leu-Val-Trp-Cys-Thr [SEQ ID NO:3] | 0.810 | 0.510 | – | –
Asp-Cys-Ala-Trp-His-Leu-Gly-Glu-Leu-Val-Trp-Cys-Thr [SEQ ID NO:2] | 0.741 | 0.532 | – | OD405 FcγIIa (R131 allele) (FcγIIa (R131 allele)): 0.561
